Measured values as given in publication PMC12651750 (Cells, 2025).
Like-named read-outs stand apart in the source and are kept apart here.

Tests used:
Assay type in all cases: cell-based
[1] = tested on: HUVEC, human umbilical vein endothelial cells; assay: Toxicity on normal cells (MTT / CCK-8 assay)
Experimental: These cells were purchased from the National Collection of Authenticated Cell Cultures (Shanghai, China).
(§1) The concentration of the cell suspension was adjusted to the appropriate concentration with fresh medium (the number of cells was about 30–40% of the bottom area of the well plate). 150 μL (about 1 × 10^4 cells) of prepared cell suspension containing different concentrations of NBU-2 were added to a 96-microtiter plate, and 3 replicate wells were set up for each concentration. If the cells were adherent, the cells were first allowed to grow overnight in 96 microtiter plates until the cells were adherent, and then the old medium was replaced with the drug-containing medium. The plates were incubated in a 5% CO2 cell incubator at 37 °C for 72 h. Then, 15 μL of MTT solution was added to each well, 100 μL of 10% SDS solution (pH = 2) was added after 4 h, and the plate was incubated at 37 °C with 5% CO2 overnight to fully dissolve the crystals.
(§2) The cells (about 1 × 10^4 cells) were treated with different concentrations of NBU-2 and DMSO control for different times (24 h, 48 h, 72 h), with 3 replicate wells for each concentration. Incubate at 37 °C in a 5% CO2 cell culture incubator. After a predetermined time, 10 μL of CCK-8 was added to each well and incubated for 2 h. The absorbance was measured at the excitation wavelength of 450 nm.

[2] = tested on: Hep G2, human hepatoma cell lines; assay: Anti-proliferation MTT / CCK-8 assay; settings: HepG2, read-out: IC50 proliferation HepG2, heading: IC50 proliferation HepG2, 72 h, mean ± SEM of three independent assays
From the text: (§3) K562, human erythroleukemia line; HL-60, human leukemic cell line; Jurkat, human leukemic T cell line; CCRF-CEM, human leukemic lymphoblasts; U937, human histiocytic lymphoma; HCT-116, human colorectal cancer cell line; A549, human lung cancer cell line; Hep G2, human hepatoma cell lines; MDA-MB-231, MCF-7, human breast cancer cell line; 4T1, mouse breast cancer cell line; PC12, pheochromocytoma of the rat adrenal medulla; HUVEC, human umbilical vein endothelial cells. These cells were purchased from the National Collection of Authenticated Cell Cultures (Shanghai, China).
as §1, with “crystals. Finally, the absorbance value of each well was measured at 570 and 655 nm.” for “crystals.”
as §2

[3] = tested on: MDA-MB-231, human breast cancer cell line; assay: Anti-proliferation MTT / CCK-8 assay; settings: MDA-MB-231, read-out: IC50 proliferation MDA-MB-231, heading: IC50 proliferation MDA-MB-231, 72 h, mean ± SEM of three independent assays
From the text: as §3
as §1, with “crystals. Finally, the absorbance value of each well was measured at 570 and 655 nm.” for “crystals.”
as §2

[4] = tested on: HL-60, human leukemic cell line; assay: Anti-proliferation MTT / CCK-8 assay
From the text: as §3
as §1, with “crystals. Finally, the absorbance value of each well was measured at 570 and 655 nm.” for “crystals.”
as §2

[5] = tested on: U937, human histiocytic lymphoma; assay: Anti-proliferation MTT / CCK-8 assay
From the text: as §3
as §1, with “crystals. Finally, the absorbance value of each well was measured at 570 and 655 nm.” for “crystals.”
as §2

[6] = tested on: 4T1, mouse breast cancer cell line; assay: Anti-proliferation MTT / CCK-8 assay; settings: 72 h
From the text: as §3
as §1, with “crystals. Finally, the absorbance value of each well was measured at 570 and 655 nm.” for “crystals.”
as §2

[7] = tested on: MCF-7, human breast cancer cell line; assay: Anti-proliferation MTT / CCK-8 assay; settings: MCF7, read-out: IC50 proliferation MCF-7, heading: IC50 proliferation MCF-7, 72 h, mean ± SEM of three independent assays
From the text: as §3
as §1, with “crystals. Finally, the absorbance value of each well was measured at 570 and 655 nm.” for “crystals.”
as §2

In the case of `Cc1cccc2c(=O)c3c(NCCCCCC(=O)NO)ccc([N+](=O)[O-])c3[nH]c12` [NBU-2, N-hydroxy-6-((5-methyl-4-nitro-9-oxo-9,10-dihydroacridin-1-yl)amino)hexanamide], the IC50 ([1]; 72 h, read-out: IC50 anti-proliferative activity against HUVECs) is reported as 35.6 µM, the IC50 ([1]; read-out: IC50 proliferation HUVEC (normal cells), heading: IC50 proliferation HUVEC, 72 h, mean ± SEM of three independent assays) is reported as 35.6 ± 7.3 µM and the IC50 [2] is reported as 7.55 ± 0.46 µM. It also gave an IC50 [3] of 8.76 ± 1.88 µM, an IC50 ([4]; HL-60, 72 h, read-out: IC50 against HL-60) of less than 5 µM and an IC50 ([4]; HL-60, read-out: IC50 proliferation HL-60, heading: IC50 proliferation HL-60, 72 h, mean ± SEM of three independent assays) of 1.92 ± 0.08 µM. For the same compound, the IC50 ([5]; U-937, 72 h, read-out: IC50 against U937) was less than 5 µM, the IC50 ([5]; U-937, read-out: IC50 proliferation U937, heading: IC50 proliferation U937, 72 h, mean ± SEM of three independent assays) was 2.34 ± 1.08 µM and the IC50 [6] was greater than 0.05 µM. The IC50 [7] was 14.9 ± 3.21 µM.
